3 molecules from US11439648B2, “Use of topical BRAF inhibitor compositions for treatment of radiation dermatitis” (Lutris Pharma Ltd., priority 2019, dated 2022) can be followed below.

The subject of the assay is MIA PaCa2 K-ras cells. Description: Proliferation of MIA PaCa cells (ATPlite proliferation kit). As to conditions: after 72 hours; concentration giving the highest proliferation (range 0.002 μM to 10 μM); starvation medium; average of 6 wells; presented as percent of over-proliferation vs DMSO control. Type of assay: cell-based. As to the method: In this example, effect of the compounds on proliferation of MIA PaCa2 K-ras cells was studied. It was expected that the compounds that induce ERK phosphorylation would also induce proliferation of Mia PaCa cells.
The cells were seeded in starvation medium at 5000 cells/well in a 96 wells plate for 24 hours at 37° C., 5% CO2. The tested compounds were added at different concentrations ranging from 0.002 μM to 10 μM. The controls were untreated cells and vehicle of 0.1% DMSO. The cells were incubated at 37° C., 5% CO2, for 72 hours and then the proliferation was tested using the ATPlite proliferation kit (Perkin-Elmer). Each result represents an average of 6 wells. The results are presented as the percent of over-proliferation compared to the DMSO control.
The concentration of the compounds that provided the highest proliferation was compared to DMSO. DMSO was calculated as 100%.
On the technique in general: Cellular ATP, detected with luciferase, serves as a proxy for viable cell number.
Regarding `Cc1ccc2c(Nc3ccc(Cl)cc3)nccc2c1Nc1ncccc1-c1ncnc2[nH]cnc12` [C-1], the “% proliferation compared to the DMSO control” value (from here on “% proliferation”) stood at 30%.
Take `Cc1ccc2c(Nc3cccc(OC(F)(F)F)c3)nccc2c1Nc1ncccc1-c1ncnc2[nH]cnc12` [LUT014]: the “% proliferation” value stood at 116%.
On to `CCCS(=O)(=O)Nc1ccc(F)c(C(=O)c2c[nH]c3ncc(-c4ccc(Cl)cc4)cc23)c1F` [Vemurafenib], for which the “% proliferation” value is listed as 12%.
